According to US9409952B2, “Peptide-compound cyclization method” (Chugai Seiyaku Kabushiki Kaisha, priority 2011, dated 2016):
Like-named read-outs stand apart in the source and are kept apart here. Starred links: 1 amine or outer side, 2 acyl side, 3 side chain; linkers in the order of their positions; H or OH if unused. Positions of bridges follow the written chain, without caps; N, C: chain ends. Non-standard residues stand in square brackets, D forms with d. Residues, ends and D or L forms follow the SMILES beside them. *: point of attachment. NMeF = CN[C@@H](Cc1ccccc1)C(=O)O; NMeGABA = CN(CCCC(=O)[*:2])[*:1]; NMeI = CC[C@H](C)[C@H](NC)C(=O)O; hPhe = N[C@@H](CCc1ccccc1)C(=O)O; NMeβAla = CN(CCC(=O)[*:2])[*:1]; Aoc(2) = CCCCCC[C@H](N)C(=O)O; NMeL = CN[C@@H](CC(C)C)C(=O)O; NMeV = CN[C@H](C(=O)O)C(C)C; NMeS = CN[C@@H](CO)C(=O)O; NMeA = CN[C@@H](C)C(=O)O; Piperidide = C1CCN(*)CC1; dNMeA = CN[C@H](C)C(=O)O; β3hA = C[C@H](N)CC(=O)O; Abu = CC[C@H](N)C(=O)O; Aib = CC(C)(N)C(=O)O; Sar = CNCC(=O)O; tBu = CC(C)(C)*

Assays:
[1] = PAMPA (parallel artificial membrane permeability assay); type: in vitro ADME; details: PAMPA
Summary of the method: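 Artificial membrane was 10% (w/v) egg lecithin plus 0.5% (w/v) cholesterol in dodecane on a PVDF filter. A 10 mM DMSO stock was added at 0.5% (v/v) to donor buffer (50 mM MOPSO, pH 6.5, 5.0% glycocholic acid). After 18 h at 37 °C, LC/MS or LC/UV gave donor and acceptor levels for Pe.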

[2] = Metabolic stability in human hepatic microsome; type: in vitro ADME; details: microsomes
[3] = membrane permeation rate (Pe), 50 mM MOPSO buffer pH 6.5 with 5.0% glycocholic acid, 37° C., 18 hours, read-out: iPAMPA Pe
[4] = pH 7.4, human hepatic microsome, NADPH(+), read-out: CL NADPH(+)

SMILES | Papp at 18 hours, 50 µM ([1]; pH 6.5) | microsomal CLint at 1 uM ([2]; human, pH 7.4, CL NADPH(+)) | Papp at 18 hours, 50 µM [1, 3] | microsomal CLint at 1 uM [2, 4]
CC[C@H](C)[C@H]1C(=O)N[C@@H](C)C(=O)N(C)[C@@H](Cc2ccccc2)C(=O)N[C@@H]([C@@H](C)O)C(=O)N(C)CC(=O)N(C)[C@@H](Cc2ccccc2)C(=O)N(C)[C@@H](CC(C)C)C(=O)N[C@H](C(=O)N2CCCCC2)CC(=O)N(C)CCC(=O)N[C@@H](CC(C)C)C(=O)N(C)[C@@H](CC(C)C)C(=O)N1C [DP-48] ([NMeβAla]L[NMeL][NMeI]A[NMeF]T[Sar][NMeF][NMeL]D-Piperidide; lactam N-11) | 33 ×10⁻⁶ cm/s | 32 µL/min/mg |  | 
CC(C)C[C@@H]1NC(=O)[C@@H]2CCCN2C(=O)[C@H](Cc2ccccc2)N(C)C(=O)[C@H](C)N(C)C(=O)[C@H]([C@@H](C)O)NC(=O)[C@@H](C(C)C)NC(=O)C[C@@H](C(=O)N2CCCCC2)NC(=O)[C@H](CC(C)C)N(C)C(=O)[C@H](C)N(C)C(=O)[C@H](CCc2ccccc2)NC(=O)[C@H](C(C)C)N(C)C1=O [DP-732] ([dV]T[NMeA][NMeF]PL[NMeV][hPhe][NMeA][NMeL]D-Piperidide; lactam N-11) |  |  | 26 ×10⁻⁶ cm/s | 57 µL/min/mg
CC(C)C[C@H]1C(=O)N[C@@H](COC(C)(C)C)C(=O)N[C@H](C(=O)N2CCCCC2)CC(=O)N(C)CC(=O)N(C)[C@@H](Cc2ccccc2)C(=O)N(C)[C@@H](C)C(=O)N(C)[C@@H](CC(C)C)C(=O)N[C@@H]([C@@H](C)O)C(=O)N(C)[C@@H](C)C(=O)N1C [DP-163] ([Sar][NMeF][NMeA][NMeL]T[NMeA][NMeL]S(tBu)D-Piperidide; lactam N-9) |  |  | 23 ×10⁻⁶ cm/s | 68 µL/min/mg
CCCCCC[C@@H]1NC(=O)[C@H](CO)N(C)C(=O)C[C@H](C)NC(=O)[C@H](CC(C)C)N(C)C(=O)[C@H](CC(C)C)N(C)C(=O)[C@@H](CC(C)C)NC(=O)[C@H](CC)NC(=O)[C@H](CC(C)C)N(C)C(=O)[C@H](C(C)C)NC(=O)[C@H](CC(C)C)N(C)C(=O)CN(C)C1=O [DP-648] (cyclo([Abu][dL][NMeL][NMeL][β3hA][NMeS][Aoc(2)][Sar][NMeL]V[NMeL])) |  |  | 53 ×10⁻⁶ cm/s | 109 µL/min/mg
CC(C)C[C@H]1C(=O)N(C)[C@@H](Cc2ccccc2)C(=O)N[C@@H]([C@@H](C)O)C(=O)N(C)[C@@H](C)C(=O)N(C)[C@@H](Cc2ccccc2)C(=O)N(C)[C@@H](C)C(=O)N[C@H](C(=O)N2CCCCC2)CC(=O)N(C)CCC(=O)N(C)[C@@H](C(C)C)C(=O)N[C@@H](C)C(=O)N1C [DP-337] ([NMeβAla][NMeV]A[NMeL][NMeF]T[NMeA][NMeF][NMeA]D-Piperidide; lactam N-10) |  |  | 17 ×10⁻⁶ cm/s | 74 µL/min/mg
CC(C)C[C@@H]1NC(=O)[C@H](CC(C)C)NC(=O)[C@H](C)N(C)C(=O)C[C@@H](C(=O)N2CCCCC2)NC(=O)[C@H](C(C)C)N(C)C(=O)[C@H](CC(C)C)NC(=O)[C@H](Cc2ccccc2)NC(=O)[C@H]([C@@H](C)O)NC(=O)CN(C)C(=O)[C@H](CC(C)C)NC(=O)C(C)(C)NC1=O [DP-560] ([NMeA]LL[Aib]L[Sar]TFL[NMeV]D-Piperidide; lactam N-11) |  |  | 26 ×10⁻⁶ cm/s | 28 µL/min/mg
CC[C@H](C)[C@H](NC(=O)[C@H](CC(C)C)N(C)C(=O)CN(C)C(=O)[C@@H](NC(=O)[C@@H]1CC(=O)N[C@H](C(C)C)C(=O)N[C@@H](C)C(=O)N[C@@H]([C@@H](C)O)C(=O)N(C)[C@@H](C)C(=O)N[C@@H](Cc2ccccc2)C(=O)N(C)[C@@H](CC(C)C)C(=O)N(C)[C@@H](Cc2ccccc2)C(=O)N(C)[C@@H](CC(C)C)C(=O)N1)C(C)C)C(=O)N1CCCCC1 [DP-939] ([dV]AT[NMeA]F[NMeL][NMeF][NMeL]DV[Sar][NMeL]I-Piperidide; lactam N-9) |  |  | 3.6 ×10⁻⁶ cm/s | 8 µL/min/mg
CC[C@H](C)[C@H]1C(=O)N[C@@H](CC(C)C)C(=O)N(C)[C@@H](CC(C)C)C(=O)N[C@H](C(=O)N2CCCCC2)CC(=O)N(C)CCCC(=O)N(C)[C@@H](CC(C)C)C(=O)N[C@@H]([C@@H](C)O)C(=O)N(C)[C@@H](C)C(=O)N[C@@H](C)C(=O)N(C)[C@@H](Cc2ccccc2)C(=O)N(C)[C@@H](Cc2ccccc2)C(=O)N1C [DP-249] ([NMeGABA][NMeL]T[NMeA]A[NMeF][NMeF][NMeI]L[NMeL]D-Piperidide; lactam N-11) |  |  | 34 ×10⁻⁶ cm/s | 151 µL/min/mg
CC(C)C[C@H]1C(=O)N[C@@H](C)C(=O)N(C)[C@@H](Cc2ccccc2)C(=O)N(C)[C@@H](C)C(=O)N(C)[C@@H](Cc2ccccc2)C(=O)N[C@@H]([C@@H](C)O)C(=O)N(C)[C@@H](C)C(=O)N[C@H](C(=O)N2CCCCC2)CC(=O)N(C)[C@H](C)C(=O)N(C)[C@@H](C)C(=O)N1C [DP-341] ([dNMeA][NMeA][NMeL]A[NMeF][NMeA][NMeF]T[NMeA]D-Piperidide; lactam N-10) |  |  | 9.5 ×10⁻⁶ cm/s | 69 µL/min/mg
CC(C)C[C@H]1C(=O)N[C@@H](C(C)C)C(=O)N[C@H](C(=O)N(C)[C@@H](Cc2ccccc2)C(=O)N[C@@H](C)C(=O)N2CCCCC2)CC(=O)N[C@H](C(C)C)C(=O)N(C)[C@@H](Cc2ccccc2)C(=O)N(C)[C@@H](C)C(=O)N(C)[C@@H](CC(C)C)C(=O)N[C@@H]([C@@H](C)O)C(=O)N(C)CC(=O)N1C [DP-198] ([dV][NMeF][NMeA][NMeL]T[Sar][NMeL]VD[NMeF]A-Piperidide; lactam N-9) |  |  | 36 ×10⁻⁶ cm/s | 34 µL/min/mg
CC[C@H](C)[C@H]1C(=O)N(C)[C@@H](CC(C)C)C(=O)N[C@H](C(=O)N2CCCCC2)CC(=O)N(C)CC(=O)N[C@@H]([C@@H](C)O)C(=O)N(C)[C@@H](C)C(=O)N(C)[C@@H](C(C)C)C(=O)N[C@@H](Cc2ccccc2)C(=O)N(C)CC(=O)N[C@@H](C)C(=O)N1C [DP-75] ([Sar]T[NMeA][NMeV]F[Sar]A[NMeI][NMeL]D-Piperidide; lactam N-10) | 3.3 ×10⁻⁶ cm/s | 27 µL/min/mg |  | 
CC(C)C[C@H]1C(=O)N(C)[C@@H](CC(C)C)C(=O)N[C@H](C(=O)N(C)[C@@H](Cc2ccccc2)C(=O)N[C@@H](C)C(=O)N2CCCCC2)CC(=O)N(C)[C@@H](C)C(=O)N(C)[C@@H](Cc2ccccc2)C(=O)N(C)[C@@H](CC(C)C)C(=O)N[C@@H]([C@@H](C)O)C(=O)N(C)[C@@H](C)C(=O)N[C@@H](C(C)C)C(=O)N1C [DP-199] ([NMeA][NMeF][NMeL]T[NMeA]V[NMeL][NMeL]D[NMeF]A-Piperidide; lactam N-9) |  |  | 59 ×10⁻⁶ cm/s | 170 µL/min/mg
CC(C)C[C@@H]1NC(=O)[C@H](CC(C)C)N(C)C(=O)[C@H](Cc2ccccc2)N(C)C(=O)[C@@H](C)N(C)C(=O)C[C@@H](C(=O)N2CCCCC2)NC(=O)[C@H](Cc2ccccc2)N(C)C(=O)[C@H](C)N(C)C(=O)[C@H](C)NC(=O)CN(C)C(=O)[C@H](C)N(C)C(=O)[C@H]([C@@H](C)O)NC(=O)[C@H](C(C)C)N(C)C1=O [DP-466] ([dNMeA][NMeF][NMeL]L[NMeV]T[NMeA][Sar]A[NMeA][NMeF]D-Piperidide; lactam N-12) |  |  | 15 ×10⁻⁶ cm/s | 17 µL/min/mg
CC[C@H](C)[C@@H]1NC(=O)[C@H](CC(C)C)N(C)C(=O)[C@H](C)NC(=O)CN(C)C(=O)[C@H](CC(C)C)NC(=O)[C@H]([C@@H](C)O)NC(=O)[C@H](CC(C)C)N(C)C(=O)CCN(C)C(=O)C[C@H](C)NC(=O)[C@H](CC(C)C)N(C)C(=O)[C@H](CC(C)C)N(C)C1=O [DP-806] (cyclo(A[NMeL]I[NMeL][NMeL][β3hA][NMeβAla][NMeL]TL[Sar])) |  |  | 27 ×10⁻⁶ cm/s | 88 µL/min/mg
CC(C)C[C@H]1C(=O)N(C)[C@@H](CC(C)C)C(=O)N[C@@H](COC(C)(C)C)C(=O)N[C@H](C(=O)N2CCCCC2)CC(=O)N[C@@H](C(C)C)C(=O)N(C)[C@@H](Cc2ccccc2)C(=O)N(C)CC(=O)N[C@@H]([C@@H](C)O)C(=O)N1C [DP-694] (V[NMeF][Sar]T[NMeL][NMeL]S(tBu)D-Piperidide; lactam N-8) |  |  | 33 ×10⁻⁶ cm/s | 170 µL/min/mg
CC[C@H](C)[C@@H]1NC(=O)[C@H](Cc2ccccc2)N(C)C(=O)[C@H](CC(C)C)NC(=O)[C@H](CC(C)C)NC(=O)[C@H](Cc2ccccc2)NC(=O)[C@H](CC(C)C)NC(=O)[C@@H](C)NC(=O)C[C@@H](C(=O)N2CCCCC2)NC(=O)[C@H](Cc2ccccc2)NC(=O)[C@H]([C@@H](C)O)NC1=O [DP-115] ([dA]LFLL[NMeF]ITFD-Piperidide; lactam N-10) |  |  | 0.45 ×10⁻⁶ cm/s | 28 µL/min/mg
CC[C@H](C)[C@@H]1NC(=O)[C@H](CC(C)C)N(C)C(=O)[C@H](Cc2ccccc2)NC(=O)CCN(C)C(=O)C[C@@H](C(=O)N2CCCCC2)NC(=O)[C@H](CC(C)C)NC(=O)[C@H](Cc2ccccc2)NC(=O)[C@H](Cc2ccccc2)N(C)C(=O)[C@H](CC(C)C)NC(=O)[C@H]([C@@H](C)O)NC1=O [DP-334] ([NMeβAla]F[NMeL]ITL[NMeF]FLD-Piperidide; lactam N-10) |  |  | 20 ×10⁻⁶ cm/s | 80 µL/min/mg
CC(C)C[C@H]1C(=O)N[C@@H]([C@@H](C)O)C(=O)NCC(=O)N[C@@H](C(C)C)C(=O)N[C@H](C(=O)N(C)[C@@H](Cc2ccccc2)C(=O)N[C@@H](C)C(=O)N2CCCCC2)CC(=O)N(C)[C@H](C)C(=O)N(C)[C@@H](C(C)C)C(=O)N[C@@H](Cc2ccccc2)C(=O)N(C)[C@@H](Cc2ccccc2)C(=O)N(C)[C@@H](C)C(=O)N1C [DP-356] ([dNMeA][NMeV]F[NMeF][NMeA][NMeL]TGVD[NMeF]A-Piperidide; lactam N-10) |  |  | 34 ×10⁻⁶ cm/s | 66 µL/min/mg
CC(C)C[C@H]1C(=O)N[C@H](C(=O)N(C)[C@@H](Cc2ccccc2)C(=O)N(C)[C@@H](Cc2ccccc2)C(=O)N[C@@H](C)C(=O)N2CCCCC2)CC(=O)N(C)[C@@H](C)C(=O)N(C)[C@@H](Cc2ccccc2)C(=O)N[C@@H]([C@@H](C)O)C(=O)N(C)[C@@H](C)C(=O)N(C)[C@@H](CC(C)C)C(=O)N(C)[C@@H](CC(C)C)C(=O)N[C@@H](C(C)C)C(=O)N1C [DP-211] ([NMeA][NMeF]T[NMeA][NMeL][NMeL]V[NMeL]D[NMeF][NMeF]A-Piperidide; lactam N-9) |  |  | 3.2 ×10⁻⁶ cm/s | 178 µL/min/mg
